Laboratory results from ChEMBL document CHEMBL2176932, “De novo cyclic pseudopeptides containing aza-β3-amino acids exhibiting antimicrobial activities” (J Med Chem, 2012).
Converted amounts (≈) assume the structure as drawn.

Assays:
[1] = Toxicity in sheep RBC assessed as hemolytic activity after 1 hr; format: cell-based, Ovis aries, Erythrocyte; conditions: sheep red blood cells
[2] = Toxicity in sheep RBC assessed as hemolytic activity at 100 uM after 1 hr; format: cell-based, Ovis aries, Erythrocyte; conditions: sheep red blood cells, read-out: Activity
Staphylococcus aureus = assay: Antibacterial activity against Staphylococcus aureus ATCC 25923 after 48 hrs by microtiter broth dilution method; format: functional; conditions: ATCC 25923, 48 h
Klebsiella oxytoca = assay: Antibacterial activity against Klebsiella oxytoca CIP 7932 after 48 hrs by microtiter broth dilution method; format: functional; conditions: CIP 7932, 48 h
Enterococcus faecalis = assay: Antibacterial activity against Enterococcus faecalis CIP 186 after 48 hrs by microtiter broth dilution method; format: functional; conditions: CIP 186, 48 h
Priestia megaterium = assay: Antibacterial activity against Bacillus megaterium ATCC 10778 after 48 hrs by microtiter broth dilution method; format: functional; conditions: ATCC 10778, 48 h
Streptococcus equinus = assay: Antibacterial activity against Streptococcus equinus ATCC 5623 after 48 hrs by microtiter broth dilution method; format: functional; conditions: ATCC 5623, 48 h
[3] = Selectivity ratio of HC50 for sheep RBC to MIC for Staphylococcus aureus ATCC 25923; format: functional
Micrococcus luteus = assay: Antibacterial activity against Micrococcus luteus ATCC 10240 after 48 hrs by microtiter broth dilution method; format: functional; conditions: ATCC 10240, 48 h
[4] = Selectivity ratio of HC50 for sheep RBC to MIC for Escherichia coli ATCC 25922; format: functional
Lactococcus garvieae = assay: Antibacterial activity against Lactococcus garvieae ATCC 43921 after 48 hrs by microtiter broth dilution method; format: functional; conditions: ATCC 43921, 48 h
Klebsiella aerogenes = assay: Antibacterial activity against Enterobacter aerogenes ATCC 13048 after 48 hrs by microtiter broth dilution method; format: functional; conditions: ATCC 13048, 48 h
[5] = Selectivity ratio of MHC for sheep RBC to MIC for Escherichia coli ATCC 25922; format: functional
[6] = Selectivity ratio of MHC for sheep RBC to MIC for Staphylococcus aureus ATCC 25923; format: functional
Salmonella enterica = assay: Antibacterial activity against Salmonella enterica ATCC 13076 after 48 hrs by microtiter broth dilution method; format: functional; conditions: ATCC 13076, 48 h
Aeromonas caviae = assay: Antibacterial activity against Aeromonas caviae ATCC 15648 after 48 hrs by microtiter broth dilution method; format: functional; conditions: ATCC 15648, 48 h
Pseudomonas aeruginosa = assay: Antibacterial activity against Pseudomonas aeruginosa ATCC 27853 after 48 hrs by microtiter broth dilution method; format: functional; conditions: ATCC 27853, 48 h
[7] = Toxicity in sheep RBC assessed as minimal hemolytic concentration after 1 hr; format: cell-based, Ovis aries; conditions: erythrocyte
Escherichia coli = assay: Antibacterial activity against Escherichia coli ATCC 25922 after 48 hrs by microtiter broth dilution method; format: functional; conditions: ATCC 25922, 48 h
Listeria monocytogenes = assay: Antibacterial activity against Listeria monocytogenes SOR 100 after 48 hrs by microtiter broth dilution method; format: functional; conditions: SOR 100, 48 h
[8] = Half life in bovine serum; format: ADME, cell-free, Bos taurus; conditions: cattle

SMILES	HC50 at 1 h [1] [µM]	hemolysis at 1 h, 100 µM [2] [%]	MIC (Staphylococcus aureus) [µM]	MIC (Klebsiella oxytoca) [µM]	MIC (Enterococcus faecalis) [µM]	MIC (Priestia megaterium) [µM]	MIC (Streptococcus equinus) [µM]	Selectivity ratio [3]	MIC (Micrococcus luteus) [µM]	MIC (Lactococcus garvieae) [µM]	MIC (Klebsiella aerogenes) [µM]	Selectivity ratio [6]	MIC (Salmonella enterica) [µM]	MIC (Aeromonas caviae) [µM]	MIC (Pseudomonas aeruginosa) [µM]	MIC (Escherichia coli) [µM]	MIC (Listeria monocytogenes) [µM]	further results
CC(C)C[C@@H]1NC(=O)CN(Cc2ccc(-c3ccccc3)cc2)NC(=O)[C@H](CCCCN)NC(=O)CN(CCCCN)NC(=O)CN(Cc2ccc(-c3ccccc3)cc2)NC1=O	> 100	30	25 (≈ 21.5 µg/mL)	50 (≈ 43.1 µg/mL)	50 (≈ 43.1 µg/mL)	3.12 (≈ 2.69 µg/mL)	6.25 (≈ 5.38 µg/mL)	4	3.12 (≈ 2.69 µg/mL)	50 (≈ 43.1 µg/mL)	25 (≈ 21.5 µg/mL)	1	50 (≈ 43.1 µg/mL)	> 100	50 (≈ 43.1 µg/mL)	50 (≈ 43.1 µg/mL)	12.5 (≈ 10.8 µg/mL)	Selectivity ratio [4]: 2; Selectivity ratio [5]: 0.5; MHC [7]: 25 µM
CC(C)C[C@@H]1NC(=O)CN(Cc2ccc(-c3ccccc3)cc2)NC(=O)[C@H](CC(C)C)NC(=O)CN(Cc2ccc(-c3ccccc3)cc2)NC(=O)[C@H](CCCCN)NC(=O)CN(CCCCN)NC1=O	15	90	1.56 (≈ 1.52 µg/mL)	25 (≈ 24.4 µg/mL)	6.25 (≈ 6.09 µg/mL)	0.78 (≈ 0.76 µg/mL)	1.56 (≈ 1.52 µg/mL)	9.6	0.78 (≈ 0.76 µg/mL)	3.12 (≈ 3.04 µg/mL)	25 (≈ 24.4 µg/mL)	1	100 (≈ 97.4 µg/mL)	> 100	12.5 (≈ 12.2 µg/mL)	12.5 (≈ 12.2 µg/mL)	1.56 (≈ 1.52 µg/mL)	Selectivity ratio [4]: 1.2; Selectivity ratio [5]: 0.12
CC(C)CN1CC(=O)N[C@@H](Cc2c[nH]c3ccccc23)C(=O)NN(CC(C)C)CC(=O)N[C@@H](CCCCN)C(=O)NN(CCCCN)CC(=O)N[C@@H](CCCCN)C(=O)N1	> 100	0	> 100	> 100	> 100	50 (≈ 42.1 µg/mL)	> 100		100 (≈ 84.2 µg/mL)	> 100	> 100		> 100	> 100	> 100	> 100	> 100	
CC(C)C[C@@H]1NC(=O)CN(Cc2cccc3ccccc23)NC(=O)[C@H](CCCNC(=N)N)NC(=O)CN(CCCNC(=N)N)NC(=O)[C@H](CC(C)C)NC1=O	> 100	0	> 100	> 100	> 100	25 (≈ 19.1 µg/mL)	100 (≈ 76.6 µg/mL)		25 (≈ 19.1 µg/mL)	> 100	> 100		> 100	> 100	> 100	> 100	> 100	
CC(C)C[C@@H]1NC(=O)CN(Cc2ccc3ccccc3c2)NC(=O)[C@H](CCCCN)NC(=O)CN(CCCCN)NC(=O)CN(Cc2ccc3ccccc3c2)NC1=O	> 100	0	> 100	> 100	> 100	12.5 (≈ 10.1 µg/mL)	25 (≈ 20.2 µg/mL)		6.25 (≈ 5.06 µg/mL)	> 100	> 100		100 (≈ 80.9 µg/mL)	> 100	100 (≈ 80.9 µg/mL)	> 100	100 (≈ 80.9 µg/mL)	
CC(C)CN1CC(=O)N[C@@H](Cc2c[nH]c3ccccc23)C(=O)NN(CCCCN)CC(=O)N[C@@H](CCCCN)C(=O)NN(CCCCN)CC(=O)N[C@@H](Cc2c[nH]c3ccccc23)C(=O)N1	> 100	0	> 100	> 100	> 100	25 (≈ 22.9 µg/mL)	> 100		100 (≈ 91.5 µg/mL)	> 100	> 100		> 100	> 100	> 100	> 100	> 100	
CC(C)C[C@H]1NC(=O)CN(CCCCN)NC(=O)[C@H](CCCCN)NC(=O)CN(Cc2cccc3ccccc23)NC(=O)CN(CC(C)C)NC1=O	> 100	0	> 100	> 100	> 100	50 (≈ 36.2 µg/mL)	100 (≈ 72.5 µg/mL)		50 (≈ 36.2 µg/mL)	> 100	> 100		> 100	> 100	> 100	> 100	> 100	
CC[C@H](C)[C@H](NC(=O)CN)C(=O)NCC(=O)N[C@@H](C)C(=O)N[C@H](C(=O)N[C@@H](CC(C)C)C(=O)N[C@@H](CCCCN)C(=O)N[C@H](C(=O)N[C@@H](CC(C)C)C(=O)N[C@H](C(=O)N[C@H](C(=O)NCC(=O)N[C@@H](CC(C)C)C(=O)N1CCC[C@H]1C(=O)N[C@@H](C)C(=O)N[C@@H](CC(C)C)C(=O)N[C@H](C(=O)N[C@@H](CO)C(=O)N[C@@H](Cc1c[nH]c2ccccc12)C(=O)N[C@H](C(=O)N[C@@H](CCCCN)C(=O)N[C@@H](CCCNC(=N)N)C(=O)N[C@@H](CCCCN)C(=O)N[C@@H](CCCNC(=N)N)C(=O)N[C@@H](CCC(N)=O)C(=O)N[C@@H](CCC(N)=O)C(N)=O)[C@@H](C)CC)[C@@H](C)CC)[C@@H](C)O)[C@@H](C)O)C(C)C)C(C)C [MELITTIN]				25 (≈ 71.2 µg/mL)	12.5 (≈ 35.6 µg/mL)	6.25 (≈ 17.8 µg/mL)	3.12 (≈ 8.88 µg/mL)		1.56 (≈ 4.44 µg/mL)	6.25 (≈ 17.8 µg/mL)	12.5 (≈ 35.6 µg/mL)		25 (≈ 71.2 µg/mL)	> 100				half-life [8]: 0.06 h
N=C(N)NCCC[C@@H]1NC(=O)CN(CCCCN)NC(=O)CN(Cc2ccc3ccccc3c2)NC(=O)[C@H](Cc2ccccc2)NC(=O)CN(Cc2ccc3ccccc3c2)NC1=O	> 100	1	50 (≈ 43.6 µg/mL)	> 100	> 100	3.12 (≈ 2.72 µg/mL)	12.5 (≈ 10.9 µg/mL)	2	6.25 (≈ 5.44 µg/mL)	100 (≈ 87.1 µg/mL)	100 (≈ 87.1 µg/mL)	2	100 (≈ 87.1 µg/mL)	> 100	50 (≈ 43.6 µg/mL)	100 (≈ 87.1 µg/mL)	25 (≈ 21.8 µg/mL)	Selectivity ratio [4]: 1; Selectivity ratio [5]: 1
CC(C)CN1CC(=O)N[C@@H](Cc2c[nH]c3ccccc23)C(=O)NN(CC(C)C)CC(=O)N[C@@H](CCCCN)C(=O)NN(CCCCN)CC(=O)N[C@@H](Cc2c[nH]c3ccccc23)C(=O)N1	> 100	0	> 100	> 100	> 100	25 (≈ 22.5 µg/mL)	100 (≈ 90 µg/mL)		50 (≈ 45 µg/mL)	> 100	> 100		> 100	> 100	> 100	> 100	> 100	
C[C@@H](O)[C@@H]1NC(=O)CN(CCCCN)NC(=O)[C@H](Cc2ccccc2)NC(=O)CN(Cc2cccc3ccccc23)NC(=O)[C@H](CO)NC(=O)CN(CCCCN)NC(=O)[C@H](CO)NC(=O)CN(CCCCN)NC1=O	> 100	0	> 100	> 100	> 100	> 100	> 100		> 100	> 100	> 100		> 100	> 100	100 (≈ 106 µg/mL)	100 (≈ 106 µg/mL)	> 100	
CCCCCCCCN1CC(=O)N[C@@H](Cc2c[nH]c3ccccc23)C(=O)NN(CCCCCCCC)CC(=O)N[C@@H](CCCCN)C(=O)NN(CCCCN)CC(=O)N[C@@H](Cc2c[nH]c3ccccc23)C(=O)N1	90	55	6.25 (≈ 6.33 µg/mL)	> 100	12.5 (≈ 12.7 µg/mL)	6.25 (≈ 6.33 µg/mL)	6.25 (≈ 6.33 µg/mL)	14.4	3.12 (≈ 3.16 µg/mL)	6.25 (≈ 6.33 µg/mL)	> 100	1	> 100	> 100	25 (≈ 25.3 µg/mL)	> 100	3.12 (≈ 3.16 µg/mL)	half-life [8]: > 2 h
CCCCCCCCCCCCN1CC(=O)N[C@@H](Cc2c[nH]c3ccccc23)C(=O)NN(Cc2cccc3ccccc23)CC(=O)N[C@@H](CCCCN)C(=O)NN(CCCCN)CC(=O)N[C@@H](CC2CCCCC2)C(=O)N1	50	62	25 (≈ 26.6 µg/mL)	> 100	12.5 (≈ 13.3 µg/mL)	12.5 (≈ 13.3 µg/mL)	12.5 (≈ 13.3 µg/mL)	2	12.5 (≈ 13.3 µg/mL)	50 (≈ 53.2 µg/mL)	> 100	0.12	> 100	> 100	> 100	> 100	12.5 (≈ 13.3 µg/mL)	half-life [8]: > 2 h
